Entries after “also recorded” stand apart in the source; their conditions may differ.
How the values were obtained:
intestinal mucus [1] = test: Adhesion of the probiotic strains to intestinal mucus; format: binding; settings: for Adhesion % (+Std.): adhesion to intestinal mucus
Description: Adhesion of the probiotic strains to mucus was tested in accordance with Ouweland et al. (Ouwehand, A. C., Kirjavainen, P. V., Grönlund, M. -M., Isolauri, E., and Salminen, S. J. 1999. Adhesion of probiotic micro-organisms to intestinal mucus. Int. Dairy J. 9:623-630). LGG and probionic bacterium PJS adhered excellently to the intestinal mucus, Bbi99 moderately and LC705 weakly. Adhesion is a prerequisite for the microbe to produce beneficial effects in the intestines. On the other hand, LC705 is known to adhere well to epithet cells, similarly as LGG (Lehto, E. and Salminen S. 1997. Adhesion of two lactobacillus strains, one lactococcus strain and one propionibacterium strain to cultured human intestinal CaCO-2 cell lines. Bioscience Microflora 16: 13-17). This property is beneficial when there is an imbalance in the intestine and the protective mucus has been weakened.

[2] = Bile salt tolerance in MRS broths with Oxgal bile salt; format: physicochemical; settings: for Cell content Bile salt 0.3%: MRS broth with 0.3% Oxgal bile salt; for Cell content Bile salt 0.3% / Cell content Bile salt 0.5%: 3 hours, 37° C.; for Cell content Bile salt 0.5%: MRS broth with 0.5% Oxgal bile salt; for Initial content: before cultivation in bile salt MRS broth
Description: With regard to bile salt tolerance, the strains were tested in MRS broths that contained 0.3% and 0.5% of Oxgal (Sigma) bile salt by inoculating 1% of the fresh culture into the bile salt MRS broth to be studied. The strains were cultivated in the broths for 3 hours at 37° C., after which the content of live cells was determined using an agar suitable for the strain (see Table 5). All strains survived the treatment excellently.

[3] = Viability in pH-adjusted MRS broths; format: physicochemical; settings: for Cell content pH 2: MRS broth adjusted with lactic acid to pH 2, 37° C.; for Cell content pH 2 / Cell content pH 3 / Cell content pH 4: 3 hours; for Cell content pH 3: MRS broth adjusted with lactic acid to pH 3, 37° C.; for Cell content pH 4: MRS broth adjusted with lactic acid to pH 4, 37° C.; for Initial content: before cultivation in pH-adjusted MRS broth
Description: The strains were tested at different pH values in MRS broths the pH of which had been adjusted with lactic acid to values pH 4, pH 3 and pH 2. The strain to be studied (fresh culture) was inoculated into a pH broth of 1% and grown at 37° C. for 3 hours, after which the content of live cells was determined using an agar suitable for the strain (see Table 5). The strains maintained their viability in the 3-hour process in a pH value of 3 excellently. […] In the test the bacteria were not protected by components carried by food (such as fat) and therefore they may be assumed to preserve even better when consumed in vivo together with food.

[4] = prior-art description of the strain; cited from earlier work
[5] = tested on: cultured human intestinal CaCO-2 cell lines; settings: literature / prior-art description; cited from earlier work
intestinal mucus [6] = settings: prior-art description of the strain; cited from earlier work

Row | Substance | adhesion to the intestinal mucus (intestinal mucus [1]) | Adhesion % (+Std.) (intestinal mucus [1]) | Cell content Bile salt 0.3% [2] | Cell content Bile salt 0.5% [2] | Initial content [2] | Cell content pH 2 [3] | Cell content pH 3 [3] | Cell content pH 4 [3] | Initial content [3] | viability in pH 2 ([3]; pH 2, 3 hours) | viability in low pH values and high bile acid contents [4] | adhesion to epithelial cells [5] | adhesion to mucus (strain description) (intestinal mucus [6])
1 | Bifidobacterium infantis Bbi99 (DSM 13692) | moderately | 4.6 ± 2.3% | 1 × 10^7 cfu/ml | 1 × 10^7 cfu/ml | 3 × 10^7 cfu/ml | <10 cfu/ml | <10 cfu/ml | 2 × 10^7 cfu/ml | 1 × 10^7 cfu/ml |  |  |  | 
2 | Propionibacterium freudenreichii ssp. shermanii JS (DSM 7067) [PJS] | excellently | 24.9 ± 2.2% | 6 × 10^7 cfu/ml | 5 × 10^7 cfu/ml | 6 × 10^7 cfu/ml | 1 × 10^4 cfu/ml | 3 × 10^7 cfu/ml | 9 × 10^7 cfu/ml | 1 × 10^8 cfu/ml | remained viable | excellent |  | 
3 | Lactobacillus rhamnosus GG (ATCC 53103) [LGG] | excellently | 26.3 ± 1.3% | 2 × 10^7 cfu/ml | 9 × 10^6 cfu/ml | 1 × 10^7 cfu/ml | <10^2 cfu/ml | 1 × 10^7 cfu/ml | 2 × 10^7 cfu/ml | 1 × 10^7 cfu/ml |  | survives even lower pH values as well as high bile acid contents | excellent; also recorded: adhere well | excellent
4 | Lactobacillus rhamnosus LC705 (DSM 7061) | weakly | 0.7 ± 0.2% | 2 × 10^7 cfu/ml | 1 × 10^7 cfu/ml | 1 × 10^7 cfu/ml | <10^2 cfu/ml | 4 × 10^7 cfu/ml | 2 × 10^8 cfu/ml | 6 × 10^7 cfu/ml |  | good | moderately; also recorded: adhere well | weakly
